Laboratory results published in patent publication US20190008879A1 (priority 2017, published 2019).

Experiments:
[1] = tested on: invasive ductal breast cancer; conditions: 6 g/d in addition to chemotherapy, six months, 14 patients; cited from earlier work
periampullary cancer = assay: Preventive consumption of phytin by the patient before the diagnosis; assay type: in vivo, human; conditions: 1.4 g/day phytin solubilized in citric acid, oral, for 5 years before diagnosis
Text: Before their admission to emergency department, the patient consumed, on a regular basis, with a view to prevention and for 5 years as an oral food supplement, 1.4 g/day of phytin solubilized in citric acid.

PI3K/Akt pathway = conditions: cited from earlier work
[2] = tested on: mammary tumor cell line MCF-7; assay: In vitro antitumor activity on MCF-7, noted by the inventor; assay type: cell-based, human; conditions: MCF-7 strain

## phytin
[1]
  cytopenia (leucocyte and platelet quantitative deficiency): preserved from cytopenia
  tumor progression: no impact on tumor progression
Periampullary cancer
  antitumor activity in human in the absence of magnesium chloride: does not have antitumor activity in human

## O=P(O)(O)O[C@@H]1[C@@H](OP(=O)(O)O)[C@H](OP(=O)(O)O)[C@H](O)[C@H](OP(=O)(O)O)[C@H]1OP(=O)(O)O [myo-inositol 1,3,4,5,6 pentakis phosphate]
PI3K/Akt pathway
  antitumor activity compared with phytin: higher than that of phytin
PI3K/Akt pathway; concentration of 50 μM
  anti-angiogenic action: anti-angiogenic action by inhibiting the PI3K/Akt pathway

## O[C@H]1[C@H](O)[C@@H](O)[C@H](O)[C@@H](O)[C@H]1O [myo-inositol]
[2]
  in vitro antitumor action: no in vitro antitumor action
